US20250002470A1, “NITROGEN-CONTAINING COMPOUND, PREPARATION METHOD THEREFOR AND APPLICATION THEREOF” (ZHEJIANG AIXPLORER BIOTECH CO., LTD., priority 2021, published 2025)
pIC50: −log10 of the molar value.

target: T1, NLRP3 (Homo sapiens, UniProt Q96P20); assay: IL-1β (interleukin-1β) secretion in IFN-γ-differentiated, LPS/ATP-stimulated THP-1 cells (half inhibition rate of NLRP3); format: cell-based; conditions: IFN-γ 25 ng/mL, LPS 50 ng/mL, ATP 5 mM
T1 construct: endogenous in cells; host or cells: THP-1 cells (IFN-γ differentiated, LPS primed, ATP stimulated)
T1 sequence (Q96P20 whole entry): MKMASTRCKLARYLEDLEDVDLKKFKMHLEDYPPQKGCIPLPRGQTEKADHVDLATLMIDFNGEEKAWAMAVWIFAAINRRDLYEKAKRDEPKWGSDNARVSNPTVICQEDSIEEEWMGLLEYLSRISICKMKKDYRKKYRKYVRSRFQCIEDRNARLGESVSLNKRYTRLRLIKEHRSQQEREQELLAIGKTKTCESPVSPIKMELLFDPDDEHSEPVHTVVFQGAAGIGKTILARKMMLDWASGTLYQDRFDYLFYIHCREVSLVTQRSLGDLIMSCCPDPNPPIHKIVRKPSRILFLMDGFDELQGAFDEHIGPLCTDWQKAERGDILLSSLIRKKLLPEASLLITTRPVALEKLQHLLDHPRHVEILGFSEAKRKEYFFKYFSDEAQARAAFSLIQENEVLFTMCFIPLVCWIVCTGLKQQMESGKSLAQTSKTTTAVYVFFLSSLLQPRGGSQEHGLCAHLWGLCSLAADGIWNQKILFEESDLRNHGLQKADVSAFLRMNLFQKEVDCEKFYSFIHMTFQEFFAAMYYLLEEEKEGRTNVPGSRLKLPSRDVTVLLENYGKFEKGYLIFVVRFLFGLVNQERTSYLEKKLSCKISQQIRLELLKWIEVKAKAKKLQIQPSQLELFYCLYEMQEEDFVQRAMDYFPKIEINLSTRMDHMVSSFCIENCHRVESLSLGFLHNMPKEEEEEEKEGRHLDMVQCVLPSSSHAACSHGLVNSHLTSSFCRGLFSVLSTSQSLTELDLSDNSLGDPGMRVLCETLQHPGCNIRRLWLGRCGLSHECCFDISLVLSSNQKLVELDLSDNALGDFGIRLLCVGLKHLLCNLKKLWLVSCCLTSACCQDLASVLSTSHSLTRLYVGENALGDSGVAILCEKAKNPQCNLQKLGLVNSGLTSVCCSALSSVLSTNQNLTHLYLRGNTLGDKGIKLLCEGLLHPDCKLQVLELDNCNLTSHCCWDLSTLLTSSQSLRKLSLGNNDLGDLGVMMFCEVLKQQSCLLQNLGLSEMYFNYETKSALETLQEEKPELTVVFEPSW
Description: Remove THP-1 cells from liquid nitrogen and place in a 37° C. water bath until ice melt. Add the cells to 5 mL of warm cell culture medium and centrifuge at 1,000 rpm for 5 min. Discard the supernatant and resuspend and culture in a new cell culture medium.
THP-1 cells are cultured in the culture medium and passaged every 2-3 days.
2.1.1 Add 100 μL of cell suspension per well to the cell plate and incubate the cell plate in a 37° C., 5% CO2 incubator for 24 hours.
2.2.1 Discard the supernatant of IFN-γ differentiation after differentiation treatment. Add 100 μL of serum-free medium containing LPS (final concentration of 50 ng/mL) to the cell plate. The cell plates were incubated in a 37° C., 5% CO2 incubator for 4 h.
Place the cell plate in an incubator at 37° C. and 5% CO2 for 1 hour.
2.2.3 Add 20 μL of 6×ATP per well according to the plate map (final concentration 5 mM) and incubate the cell plate in a 37° C., 5% CO2 incubator for 1 h. Collect the supernatant (60 μL) and store at −20° C.
The capture antibody mAb Mt175 is diluted to 2 μg/mL with PBS (1:250) and added to the cell plate at 15 μL per well. Keep the plate overnight at 4° C.
2.4.1 Discard the coated antibody and wash 4 times with PBST.
2.4.3 Discard the blocking buffer and wash 4 times with PBST.
2.4.4 Add 25 μL of 2.2.3 collected supernatant sample per well and incubate for 2 h at room temperature.
2.4.5 Discard the samples and wash 4 times with PBST.
2.4.6 Add mAb7P10-biotin (concentration 0.5 ug/mL) to blocking buffer, add 15 μL per well to the cell plate, and incubate for 1 hour at room temperature.
2.4.7 Discard the antibody and wash 4 times with PBST.
2.4.8 Streptavidin-HRP was diluted 1:1000 in blocking buffer, 15 μL per well was added to the cell plate, and incubated for 1 hour at room temperature.
2.4.9 Discard streptavidin-HRP and wash 4 times with PBST.
2.4.10 Add 25 μL of HRP substrate (Surmodics-TMBW-0100-01) per well and incubate the cell plate until a blue product appears.
2.4.11 Add 25 μL of stop solution (Surmodics-LSTP-0100-01) per well, and the blue product turns yellow.
2.4.12 Read the cell plate at 450 nm with a microplate reader.

Compared with `Cc1cc(C)c(-c2cnc(N[C@@H]3CCCN(CC(=O)O)C3)nn2)c(O)c1` [Embodiment 3, (R)-2-(3-((6-(2-hydroxy-4,6-dimethylphenyl)-1,2,4-triazin-3-yl)amino)piperidin-1-yl)acetic acid], `Cc1cc(C)c(-c2cnc(N[C@@H]3CCCN(CC(N)=O)C3)nn2)c(O)c1` [Embodiment 23, (R)-2-(3-((6-(2-hydroxy-4,6-dimethylphenyl)-1,2,4-triazin-3-yl)amino)piperidin-1-yl)acetamide] is 0.85 log units lower in pIC50: 7.27 for the first, 6.42 for the second.

Going from `Cc1cc(C)c(-c2cnc(NC3CCCN4CCCC34)nn2)c(O)c1` [Embodiment 4, (R)-3,5-dimethyl-2-(9-((1,2,3,5,6,7,8,8a-octahydroindozine-9-yl)amino)-1,2,4-triazin-6-yl)phenol] to `Cc1cc(C)c(-c2cnc(N[C@@H]3CCCN(C)C3)nn2)c(O)c1` [Embodiment 108], the pIC50 rises from 7.49 to 7.96 (0.47 log units). The second is the more potent here.

`Cc1nc(N[C@@H]2CCCN(C)C2)nnc1-c1ccc(Cl)cc1O` [Embodiment 7, (R)-5-Chloro-2-(5-methyl-3-((1-methylpiperidin-3-yl)amino)-1,2,4-triazin-6-yl)phenol] and `Cc1nc(N[C@@H]2CCCN(C)C2)nnc1-c1ccc(C(F)(F)F)cc1O` [Embodiment 8, (R)-2-(5-methyl-3-((1-methylpiperidin-3-yl)amino)-1,2,4-triazin-6-yl)-5-(trifluoromethyl)phenol] are within 0.2 log units of each other in pIC50: 8.92 for the first, 8.82 for the second.

`Cc1nc(N[C@@H]2CCCN(C)C2)nnc1-c1ncc(C(F)(F)F)cc1O` [Embodiment 9, (R)-2-(5-methyl-3-((1-methylpiperidin-3-yl)amino)-1,2,4-triazin-6-yl)-5-(trifluoromethyl)pyridin-3-ol] and `Cc1nc(N[C@@H]2CCCN(C(C)CO)C2)nnc1-c1ncc(C(F)(F)F)cc1O` (stereo partly drawn) [Embodiment 54, 2-(3-(((3R)-1-(1-hydroxypropyl-2-yl)piperidin-3-yl)amino)-5-methyl-1,2,4-triazin-6-yl)-5-(trifluoromethyl)pyridin-3-ol] are within 0.2 log units of each other in pIC50: 7.17 for the first, 7.33 for the second.

Compared with `Cc1cc(C(F)(F)F)cc(O)c1-c1cnc(N[C@@H]2CCCN(C)C2)nn1` [Embodiment 10, (R)-3-methyl-2-(3-((1-methylpiperidin-3-yl)amino)-1,2,4-triazin-6-yl)-5-(trifluoromethyl)phenol], `CN1CCC[C@@H](Nc2ncc(-c3c(O)cc(C(F)(F)F)cc3Cl)nn2)C1` [Embodiment 107] is 0.28 log units lower in pIC50: 7.81 for the first, 7.53 for the second. The first is the more potent here.

First: Cc1cc(Cl)cc(O)c1-c1cnc(N[C@@H]2CCCN(C)C2)nn1 [Embodiment 11, (R)-5-chloro-3-methyl-2-(3-((1-methylpiperidin-3-yl)amino)-1,2,4-triazin-6-yl)phenol]
Second: Cc1cc(C)c(-c2cnc(N[C@@H]3CCCN(C(C)CO)C3)nn2)c(O)c1 (stereo partly drawn) [Embodiment 22, 2-(3-(((3R)-1-(1-hydroxypropyl-2-yl)piperidin-3-yl)amino)-1,2,4-triazin-6-yl)-3,5-dimethylphenol]
The pIC50 of the first is 0.78 log units higher: 8.40 for the first, 7.62 for the second.

`Cc1cc(N[C@@H]2CCCN(C)C2)nnc1-c1ncc(C(F)(F)F)cc1O` [Embodiment 12, (R)-2-(4-methyl-6-((1-methylpiperidin-3-yl)amino)pyridazin-3-yl)-5-(trifluoromethyl)pyridin-3-ol] and `CN1CCC[C@@H](Nc2nnc(-c3ccc(C(F)(F)F)cc3O)c3occc23)C1` [Embodiment 15, (R)-2-(4-((1-methylpiperidin-3-yl)amino)furo[2,3-d]pyridazin-7-yl)-5-(trifluoromethyl)phenol] are within 0.2 log units of each other in pIC50: 7.51 for the first, 7.55 for the second.

Compared with `CN1CCC[C@@H](Nc2nnc(-c3ccc(C(F)(F)F)cc3O)c3ccoc23)C1` [Embodiment 18, (R)-2-(7-((1-methylpiperidin-3-yl)amino)furo[2,3-d]pyridazin-4-yl)-5-(trifluoromethyl)phenol], `CN1CCC[C@@H](Nc2nnc(-c3ccc(C(F)(F)F)cc3O)c3cc[nH]c23)C1` [Embodiment 20] is 0.57 log units lower in pIC50: 8.24 for the first, 7.67 for the second.

First: CN1CCC[C@@H](Nc2nnc(-c3ccc(C(F)(F)F)cc3O)c3c2CCO3)C1 [Embodiment 19, (R)-2-(4-((1-methylpiperidin-3-yl)amino)-2,3-dihydrofuro[2,3-d]pyridazin-7-yl)-5-(trifluoromethyl)phenol]
Second: CN1CCC[C@@H](Nc2nnc(-c3ccc(C(F)(F)F)cc3O)c3c2C(F)(F)CC3)C1 [Embodiment 112]
The pIC50 of the first is 1.63 log units lower: 7.07 for the first, 8.70 for the second. The second is the more potent here.

`CN1CCC[C@@H](Nc2nnc(-c3ccc(C(F)(F)F)cc3O)c3[nH]ccc23)C1` [Embodiment 21] and `CN1CCC[C@@H](Nc2nnc(-c3ccc(C(F)(F)F)cc3O)c3cocc23)C1` [Embodiment 109] are within 0.2 log units of each other in pIC50: 7.31 for the first, 7.39 for the second.

Compared with `Cc1cc(C)c(-c2cnc(N[C@@H]3CCCN(CC(=O)N[C@@H](C)CO)C3)nn2)c(O)c1` [Embodiment 24, 2-((R)-3-((6-(2-hydroxy-4,6-dimethylphenyl)-1,2,4-triazin-3-yl)amino)piperidin-1-yl)-N—((S)-1-hydroxypropyl-2-yl)acetamide], `Cc1cc(C)c(-c2cnc(N[C@@H]3CCCN(CC(=O)N[C@H]4C[C@@](C)(O)C4)C3)nn2)c(O)c1` [Embodiment 25] is 0.21 log units lower in pIC50: 6.71 for the first, 6.50 for the second. The first is the more potent here.

First: Cc1cc(C)c(-c2nnc(N[C@@H]3CCCN(C)C3)nn2)c(O)c1 [Embodiment 26, (R)-3,5-Dimethyl-2-(6-((1-methylpiperidin-3)amino)-1,2,4,5-tetraazin-3)phenol]
Second: Cc1cc(Cl)cc(O)c1-c1nnc(N[C@@H]2CCCN(C)C2)c2ccccc12 [Embodiment 29]
The pIC50 of the first is 1.94 log units lower: 6.35 for the first, 8.29 for the second.

`Cc1ccc(-c2nnc(N[C@@H]3CCCN(C)C3)c3ccccc23)c(O)c1` [Embodiment 27, (R)-5-methyl-2-(4-((1-methylpiperidin-3-yl)amino)phthalazin-1-yl)phenol] and `CN1CCC[C@@H](Nc2nnc(-c3ccc(Cl)cc3O)c3ccccc23)C1` [Embodiment 28, (R)-5-chloro-2-(4-((1-methylpiperidin-3-yl)amino)phthalazin-1-yl)phenol] are within 0.2 log units of each other in pIC50: 8.85 for the first, 8.96 for the second.

`CN1CCC[C@@H](Nc2nnc(-c3ccc(C(F)(F)F)cc3O)c3cnccc23)C1` [Embodiment 30, (R)-2-(1-((1-methylpiperidin-3-yl)amino)pyrido[3,4-d]pyridazin-4-yl)-5-(trifluoromethyl)phenol] and `CN1CCC[C@@H](Nc2nnc(-c3ccc(C(F)(F)F)cc3O)c3ccncc23)C1` [Embodiment 31, (R)-2-(4-((1-methylpiperidin-3-yl)amino)pyrido[3,4-d]pyridazin-1-yl)-5-(trifluoromethyl)phenol] are within 0.2 log units of each other in pIC50: 8.54 for the first, 8.66 for the second.

`Cc1nc(N[C@@H]2CCC[C@@H](O)C2)nnc1-c1ccc(C(F)(F)F)cc1O` [Embodiment 36, 2-(3-(((1R,3R)-3-hydroxycyclohexyl)amino)-5-methyl-1,2,4-triazin-6-yl)-5-(trifluoromethyl)phenol] and `Cc1nc(N[C@@H]2CCCN(CC(N)=O)C2)nnc1-c1ccc(C(F)(F)F)cc1O` [Embodiment 42, (R)-2-(3-((6-(2-hydroxy-4-(trifluoromethyl)phenyl)-5-methyl-1,2,4-triazin-3-yl)amino)piperidin-1-yl) acetamide] are within 0.2 log units of each other in pIC50: 7.27 for the first, 7.20 for the second.

Compared with `C[C@]1(O)C[C@@H](Nc2nnc(-c3ccc(C(F)(F)F)cc3O)c3ccccc23)C1` [Embodiment 65], `C[C@]1(O)C[C@@H](Nc2nnc(-c3ccc(C(F)(F)F)cc3O)c3ccncc23)C1` [Embodiment 77, 2-(4-(((cis)-3-hydroxy-3-methylcyclobutyl)amino)pyrido[3,4-d]pyridazin-1-yl)-5-(trifluoromethyl)phenol] is 0.27 log units lower in pIC50: 7.98 for the first, 7.71 for the second. The first is the more potent here.

First: Oc1cc(C(F)(F)F)ccc1-c1nnc(N[C@@H]2CCCC[C@H]2O)c2cccnc12 [Embodiment 71]
Second: C[C@]1(O)C[C@@H](Nc2nnc(-c3ccc(C(F)(F)F)cc3O)c3ncccc23)C1 [Embodiment 76, 2-(5-(((cis)-3-hydroxy-3-methylcyclobutyl)amino)pyrido[2,3-d]pyridazin-8-yl)-5-(trifluoromethyl)phenol]
The pIC50 of the first is 0.92 log units lower: 7.03 for the first, 7.95 for the second.

`Oc1cc(C(F)(F)F)ccc1-c1nnc(N[C@@H]2CCCC[C@H]2O)c2c1CCC2` [Embodiment 81, 2-(4-(((1R,2R)-2-hydroxycyclohexyl)amino)-6,7-dihydro-5H-cyclopenta[d]pyridazin-1-yl)-5-(trifluoromethyl)phenol] and `C[C@]1(O)C[C@@H](Nc2nnc(-c3ccc(C(F)(F)F)cc3O)c3c2CCC3)C1` [Embodiment 82, 2-(4-(((cis)-3-hydroxy-3-methylcyclobutyl)amino)-6,7-dihydro-5H-cyclopenta[d]pyridazin-1-yl)-5-(trifluoromethyl)phenol] are within 0.2 log units of each other in pIC50: 7.46 for the first, 7.32 for the second.

`CN1CCC[C@@H](Nc2nnc(-c3ccc(C(F)(F)F)cc3O)c3ccn(C)c23)C1` [Embodiment 113] was tested, and the pIC50 was 7.79.
